Test results as given in patent publication US20240238232A1, “COMPOSITIONS AND METHODS FOR THE REDUCTION OR TREATMENT OF INSULIN RESISTANCE AND METABOLIC CONDITIONS” (AXCELLA HEALTH INC., priority 2018, published 2024).
Values joined by “and” are separate entries in the source; they are usually repeats but may differ in a detail not shown here. Equal entries are not always repeated. Structures can show the parent of a compound that is named as a salt. Marks after values point to notes of the source that are not given here.

Experiments:
[1] = system: B6.Cg-Lep^ob/J (ob/ob) mouse model; assay: Oral glucose tolerance test (OGTT) in ob/ob mice, Example 1; format: in vivo; settings: for Blood glucose levels raw data: individual ob/ob mice, OGTT, metformin 450 mg/kg, hydrochloride; for Mean blood glucose level: ob/ob mice OGTT Day 3, metformin hydrochloride 450 mg/kg QD PO
Procedure: Amino Acid Composition A-1 and metformin were tested for their ability to affect glucose tolerance in a genetically obese B6.Cg-Lep^ob/J (ob/ob) mouse model (Maida A, et al., 2010, PMID: 20972533).
Eight-week-old male ob/ob mice were subjected to treatment of test articles (Amino Acid Composition A-1 and metformin) followed by oral glucose tolerance test (OGTT) on Day 3. Mice were randomized by body weight and unfasted blood glucose on Day −1. Body weight was recorded daily in the morning before AM dosing on Day 1, Day 2, and Day 3. Test articles were dosed by oral gavage at 10 ml/kg. Dosage of a test article was calculated based on daily body weight. Treatment schedule and dose are listed in the following section (Table 34). AM doses were administered at 0700, and PM doses were administered at 1800. Oral glucose tolerance test (OGTT) was performed after 6-hour fasting on Day 3.
Mice were fasted for 6 hours prior to OGTT test. Food was removed at 0700 hours on Day 3; water was provided during fasting. Blood samples were collected from tail snip or facial puncture at −30 min (relative to OGTT) into K2EDTA tubes for baseline glucose and blood biochemistry (insulin, triglyceride, and cholesterol). Blood glucose was measured by a glucometer (SDI StatStrip Xpress or equivalent). Plasma was collected in K2EDTA and saved at −80° C.
Mice were bled for baseline glucose and plasma at −30 min. Test articles were then dosed by oral gavage at −30 min. Glucose was administered per os (P.O.) at a dosage of 2.0 g/kg body weight. Blood glucose levels were measured at 0 min immediately prior to glucose injection and then at 15, 30, 60, 120 and 240 minutes thereafter (shown as 0.25, 0.5, 1, 2, and 4 hours in Table 35 below).
Data are mean±standard deviation (stdev). (p values by Dunnett's multiple comparisons: **p<0.005 compared to vehicle control; ***p<0.001 compared to vehicle control; ****p<0.0005 compared to vehicle control.)

[2] = system: B6.Cg-Lep^ob/J (ob/ob) mouse model; assay: as above; format: in vivo; settings: timepoint −1 hours
ob/ob mice; C57/BL6 = settings: cited from earlier work

In the case of CN(C)C(=N)N=C(N)N [Metformin, Metformin hydrochloride], the “Blood glucose levels raw data” value ([1]; timepoint 0 hours) is reported as 274 mg/dL and 234 mg/dL and 220 mg/dL and 129 mg/dL and 140 mg/dL, the “Blood glucose levels raw data” value ([1]; timepoint 0.25 hours) is reported as 387 mg/dL and 397 mg/dL and 427 mg/dL and 310 mg/dL and 247 mg/dL and the “Blood glucose levels raw data” value ([1]; timepoint 0.5 hours) is reported as 462 mg/dL and 439 mg/dL and 482 mg/dL and 307 mg/dL and 261 mg/dL. For the same molecule, the “Blood glucose levels raw data” value ([1]; timepoint 1 hours) was 365 mg/dL and 399 mg/dL and 431 mg/dL and 239 mg/dL and 154 mg/dL, the “Blood glucose levels raw data” value ([1]; timepoint 2 hours) was 154 mg/dL and 183 mg/dL and 219 mg/dL and 124 mg/dL and 111 mg/dL and the “Blood glucose levels raw data” value ([1]; timepoint 4 hours) was 118 mg/dL and 93 mg/dL and 155 mg/dL and 101 mg/dL and 80 mg/dL. For the same molecule, the “Mean blood glucose level” value ([1]; timepoint 0 hours) was 199.4 mg/dL, the “Mean blood glucose level” value ([1]; timepoint 0.25 hours) was 353.6**** mg/dl and the “Mean blood glucose level” value ([1]; timepoint 0.5 hours) was 390.2*** mg/dl. For the same molecule, the “Mean blood glucose level” value ([1]; timepoint 1 hours) was 317.6 mg/dL, the “Mean blood glucose level” value ([1]; timepoint 2 hours) was 158.2 mg/dL and the “Mean blood glucose level” value ([1]; timepoint 4 hours) was 109.4 mg/dL. The “Blood glucose levels raw data” value ([2]; individual ob/ob mice, OGTT, metformin 450 mg/kg, hydrochloride) was 265 mg/dL and 248 mg/dL and 183 mg/dL and 120 mg/dL and 166 mg/dL, the “Mean blood glucose level” value ([2]; ob/ob mice OGTT Day 3, metformin hydrochloride 450 mg/kg QD PO) was 196.4 mg/dL and the “Glucose tolerance (OGTT)” value (ob/ob mice; C57/BL6; C57/BL6, single dose) was “improves glucose tolerance”. For the same molecule, the Plasma glucose (ob/ob mice; C57/BL6; ob/ob mice (Cool B, et al., 2006)) was “lowers plasma glucose” and the NAFLD (ob/ob mice; C57/BL6; ob/ob mice (Lin H Z et al., 2000; Cool B, et al., 2006)) was “reverses NAFLD”.
